From patent publication EP1789452B1, “RELAXIN-CHIMERIC POLYPEPTIDES AND THEIR PREPARATION AND USE” (Janssen Pharmaceutica NV, priority 2004, dated 2006)

How the values were obtained:
LGR7 = target: T1, LGR7 (Homo sapiens, UniProt Q9HBX9); test: Stimulation of β-galactosidase expression in SK-N-MC/β-gal cells; assay type: cell-based
T1 construct: Human LGR7 cDNA containing the complete coding region was PCR amplified from a human brain cDNA pool; expressed in transfected cells; host or cells: COS-7 (transient, live cells)
T1 sequence (Q9HBX9 1-757): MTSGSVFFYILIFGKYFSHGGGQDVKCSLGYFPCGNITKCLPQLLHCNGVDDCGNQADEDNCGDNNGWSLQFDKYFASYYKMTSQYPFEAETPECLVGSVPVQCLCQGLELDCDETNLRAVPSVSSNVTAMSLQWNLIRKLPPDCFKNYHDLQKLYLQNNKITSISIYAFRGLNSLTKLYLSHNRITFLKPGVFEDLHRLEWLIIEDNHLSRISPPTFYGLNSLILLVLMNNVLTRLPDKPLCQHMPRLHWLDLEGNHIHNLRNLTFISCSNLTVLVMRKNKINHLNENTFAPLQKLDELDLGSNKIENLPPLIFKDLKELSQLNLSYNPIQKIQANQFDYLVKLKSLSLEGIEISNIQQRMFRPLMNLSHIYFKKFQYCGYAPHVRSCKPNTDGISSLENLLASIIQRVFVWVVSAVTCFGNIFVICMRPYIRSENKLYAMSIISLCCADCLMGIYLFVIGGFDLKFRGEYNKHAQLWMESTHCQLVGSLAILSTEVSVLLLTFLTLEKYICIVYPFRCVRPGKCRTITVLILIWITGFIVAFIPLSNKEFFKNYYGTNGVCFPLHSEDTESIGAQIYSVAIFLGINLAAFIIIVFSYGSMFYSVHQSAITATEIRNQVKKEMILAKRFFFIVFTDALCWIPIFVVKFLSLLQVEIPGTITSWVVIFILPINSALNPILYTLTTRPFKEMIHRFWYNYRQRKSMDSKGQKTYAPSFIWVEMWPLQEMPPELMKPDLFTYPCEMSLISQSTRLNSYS

LGR8 = target: T2, LGR8 (Homo sapiens, UniProt Q8WXD0); test: as above; assay type: cell-based; conditions: highest concentration tested 1 µM
T2 construct: Human LGR8 cDNA containing the complete coding region was PCR amplified from a human testis cDNA pool; expressed in transfected cells
T2 sequence (Q8WXD0 whole entry): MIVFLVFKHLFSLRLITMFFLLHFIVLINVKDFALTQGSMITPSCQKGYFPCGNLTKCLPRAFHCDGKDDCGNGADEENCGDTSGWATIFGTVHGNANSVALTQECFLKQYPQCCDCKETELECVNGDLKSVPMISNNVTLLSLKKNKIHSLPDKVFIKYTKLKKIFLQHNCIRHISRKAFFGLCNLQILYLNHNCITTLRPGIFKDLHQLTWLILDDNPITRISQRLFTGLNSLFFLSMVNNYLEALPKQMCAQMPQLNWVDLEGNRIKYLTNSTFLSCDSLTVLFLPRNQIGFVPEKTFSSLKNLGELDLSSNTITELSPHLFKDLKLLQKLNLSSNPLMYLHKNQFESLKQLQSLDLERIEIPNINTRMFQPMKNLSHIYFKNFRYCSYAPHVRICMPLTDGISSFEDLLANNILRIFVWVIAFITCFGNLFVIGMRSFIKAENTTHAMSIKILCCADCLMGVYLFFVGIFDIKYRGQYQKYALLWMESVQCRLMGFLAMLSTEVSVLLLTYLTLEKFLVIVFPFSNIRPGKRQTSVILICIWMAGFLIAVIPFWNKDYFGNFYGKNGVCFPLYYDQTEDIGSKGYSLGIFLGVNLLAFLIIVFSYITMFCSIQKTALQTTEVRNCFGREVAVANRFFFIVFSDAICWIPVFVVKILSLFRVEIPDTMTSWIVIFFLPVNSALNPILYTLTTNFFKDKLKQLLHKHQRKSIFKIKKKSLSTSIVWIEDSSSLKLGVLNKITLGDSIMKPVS

- activation of LGR7 expressing cells (LGR7): did not activate
- activity towards LGR8 (LGR8): did not activate
SMILES: CC[C@H](C)[C@H](NC(=O)[C@H](Cc1ccccc1)NC(=O)[C@H](CCC(=O)O)NC(=O)[C@H](CCCNC(=N)N)NC(=O)CNC(=O)[C@H](CS)NC(=O)[C@H](CC(C)C)NC(=O)[C@H](CCCNC(=N)N)NC(=O)[C@@H](NC(=O)CNC(=O)[C@H](Cc1ccc(O)cc1)NC(=O)[C@@H]1CCCN1C(=O)[C@H](C)NC(=O)[C@H](C)NC(=O)[C@@H](N)CCCNC(=N)N)C(C)C)C(=O)N[C@@H](CCCNC(=N)N)C(=O)N[C@@H](C)C(=O)N[C@H](C(=O)N[C@H](C(=O)N[C@@H](Cc1ccccc1)C(=O)N[C@H](C(=O)N[C@@H](CS)C(=O)NCC(=O)NCC(=O)N[C@@H](CO)C(=O)N[C@@H](CCCNC(=N)N)C(=O)N[C@@H](Cc1c[nH]c2ccccc12)C(=O)O)[C@@H](C)O)[C@@H](C)CC)C(C)C [relaxin-3 B-chain]
